Test results as given in patent US20230146455A1, “TREATMENT OF INFLAMMATORY DISEASES WITH PEPTIDES AND PHARMACEUTICAL COMPOSITIONS” (Yuyu Pharma, Inc., priority 2020, published 2023).
Several values for one entry are separate records, joined by “and”; a condition that tells them apart may be missing. Identical values can stand only once. Where a SMILES comes first, the peptide text is derived from it. [ ]: non-standard residue; d: D form. Hyp = O=C(O)[C@@H]1C[C@@H](O)CN1

Test system: MMP-9
Experiment: Example 8 main study Luminex, LPS hPBMCs: MMP-9
Type: cell-based, human
Description: Human PBMCs were pretreated with YY-101, YDE-011, YDE-043 or reference compound; Xiidra® at various concentration (ranging from […] to 500 nM) for 2 h before stimulation. An equal volume of 0.5% DMSO was used as a vehicle control. Then, the cells were treated with LPS at 5 ug/ml, which was selected based on the pilot study. The supernatants from treated cells were harvested at 24 h and placed in a 96 well for Luminex cytokine & chemokine profiling using a Luminex 200 multiplex assay (Luminex; R&D system, USA).
The main study arm with triplicate wells per group in a 24-well plate: • 1. Blank • 2. PBMC: 0.5% DMSO • 3. PBMC+LPS (5 ug/ml) • 4. PBMC+YY-101 500 nM • 5. PBMC+YY-101 50 nM • 6. PBMC+YY-101 5 nM • 7. PBMC+YY-101 0.5 nM • 8. PBMC+LPS (5 ug/ml)+Xiidra® 500 nM • 9. PBMC+LPS (5 ug/ml)+Xiidra® 50 nM • 10. PBMC+LPS (5 ug/ml)+Xiidra® 5 nM • 11. PBMC+LPS (5 ug/ml)+Xiidra® 0.5 nM • 12. PBMC+LPS (5 ug/ml)+Xiidra® 0.05 nM • 13. PBMC+LPS (5 ug/ml)+Xiidra® 0.005 nM • 14. PBMC+LPS (5 ug/ml)+YY-101 500 nM • 15. PBMC+LPS (5 ug/ml)+YY-101 50 nM • 16. PBMC+LPS (5 ug/ml)+YY-101 5 nM • 17. PBMC+LPS (5 ug/ml)+YY-101 0.5 nM • 18. PBMC+LPS (5 ug/ml)+YY-101 0.05 nM • 19. PBMC+LPS (5 ug/ml)+YY-101 0.005 nM • 20. PBMC+LPS (5 ug/ml)+YDE-011 500 nM • 21. PBMC+LPS (5 ug/ml)+YDE-011 50 nM • 22. PBMC+LPS (5 ug/ml)+YDE-011 5 nM • 23. PBMC+LPS (5 ug/ml)+YDE-011 0.5 nM • 24. PBMC+LPS (5 ug/ml)+YDE-011 0.05 nM • 25. PBMC+LPS (5 ug/ml)+YDE-011 0.005 nM • 26. PBMC+LPS (5 ug/ml)+YDE-043 500 nM • 27. PBMC+LPS (5 ug/ml)+YDE-043 50 nM • 28. PBMC+LPS (5 ug/ml)+YDE-043 5 nM • 29. PBMC+LPS (5 ug/ml)+YDE-043 0.5 nM • 30. PBMC+LPS (5 ug/ml)+YDE-043 0.05 nM • 31. PBMC+LPS (5 ug/ml)+YDE-043 0.005 nM
Multiplex assay was used to measure 30 cytokines and chemokines. The 1:200 diluted cell supernatant and serial dilution of the standard were dispensed into a 96 well plate at 50 ul/well. Then, the pre-mixed cocktail of antibody-coated magnetic beads was dispensed at 50 ul/well and incubated at room temperature for 2 h in a horizontal orbital microplate shaker at 800±500 rpm. The beads were washed using a magnetic device to prevent loss. The biotin-antibody was dispensed in 50 ul of each well and incubated at room temperature for 1 h in a shaker at 800±500 rpm. After washing, streptavidin-PE was added at 50 ul/well and incubated at room temperature for 30 min in a shaker under the same conditions. Finally, after washing, wash buffer (100 ul/well) was added to the plate and incubated in a shaker for 2 min. The Luminex™ 200 setting were set according to the manufacturer's protocol. The data was calculated with a standard five-parameter logistic nonlinear regression analysis of the data (xPonent software 4.2, USA). Results were presented as concentration (ng/ml or pg/ml).

[1] = PBMC + LPS(5 ug/ml), test article 0.005 nM, Mean
[2] = PBMC + LPS(5 ug/ml), test article 0.005 nM, single replicates
[3] = PBMC + LPS(5 ug/ml), test article 0.05 nM, Mean
[4] = PBMC + LPS(5 ug/ml), test article 0.05 nM, single replicates
[5] = PBMC + LPS(5 ug/ml), test article 0.5 nM, Mean
[6] = PBMC + LPS(5 ug/ml), test article 0.5 nM, single replicates
[7] = PBMC + LPS(5 ug/ml), test article 5 nM, Mean
[8] = PBMC + LPS(5 ug/ml), test article 5 nM, single replicates
[9] = PBMC + LPS(5 ug/ml), test article 50 nM, Mean
[10] = PBMC + LPS(5 ug/ml), test article 50 nM, single replicates
[11] = PBMC + LPS(5 ug/ml), test article 500 nM, Mean
[12] = PBMC + LPS(5 ug/ml), test article 500 nM, single replicates
[13] = PBMC without LPS, test article 0.5 nM, Mean
[14] = PBMC without LPS, test article 0.5 nM, single replicates (1st, 2nd)
[15] = PBMC without LPS, test article 5 nM, Mean
[16] = PBMC without LPS, test article 5 nM, single replicates (1st, 2nd)
[17] = PBMC without LPS, test article 0.05 uM, Mean
[18] = PBMC without LPS, test article 0.05 uM, single replicates (1st, 2nd)
[19] = PBMC without LPS, test article 50 nM, Mean
[20] = PBMC without LPS, test article 50 nM, single replicates (1st, 2nd)
[21] = PBMC without LPS, test article 500 nM, Mean
[22] = PBMC without LPS, test article 500 nM, single replicates (1st, 2nd)

CC(C)C[C@H](NC(=O)CNC(=O)[C@H](CC(=O)O)NC(=O)[C@H](CCC(N)=O)NC(=O)CNC(=O)[C@@H]1C[C@@H](O)CN1)C(=O)N[C@@H](C)C(=O)NCC(=O)N1CCC[C@H]1C(=O)N[C@@H](CCCCN)C(=O)O [YY-101] (H-[Hyp]GQDGLAGPK-OH; N-terminus and C-terminus assumed)
Concentration (pg/ml), MMP-9 [1]: 4617.5 pg/mL | MFI (Bead name: MMP-9) [1]: 31.0 | Concentration (pg/ml), MMP-9 [2]: 3688.0 pg/mL and 4925.2 pg/mL and 5239.4 pg/mL | MFI (Bead name: MMP-9) [2]: 28.0 and 32.0 and 33.0 | Concentration (pg/ml), MMP-9 [3]: 4977.8 pg/mL | MFI (Bead name: MMP-9) [3]: 32.2 | Concentration (pg/ml), MMP-9 [4]: 5239.4 pg/mL and 4925.2 pg/mL and 4768.8 pg/mL | MFI (Bead name: MMP-9) [4]: 33.0 and 32.0 and 31.5 | Concentration (pg/ml), MMP-9 [5]: 5239.4 pg/mL | MFI (Bead name: MMP-9) [5]: 33.0 | Concentration (pg/ml), MMP-9 [6]: 5239.4 pg/mL | MFI (Bead name: MMP-9) [6]: 33.0 | Concentration (pg/ml), MMP-9 [7]: 5138.2 pg/mL | MFI (Bead name: MMP-9) [7]: 32.7 | Concentration (pg/ml), MMP-9 [8]: 5239.4 pg/mL and 4302.5 pg/mL and 5872.9 pg/mL | MFI (Bead name: MMP-9) [8]: 33.0 and 30.0 and 35.0 | Concentration (pg/ml), MMP-9 [9]: 5239.9 pg/mL | MFI (Bead name: MMP-9) [9]: 33.0 | Concentration (pg/ml), MMP-9 [10]: 5239.4 pg/mL and 4925.2 pg/mL and 5555.3 pg/mL | MFI (Bead name: MMP-9) [10]: 33.0 and 32.0 and 34.0 | Concentration (pg/ml), MMP-9 [11]: 5135.8 pg/mL | MFI (Bead name: MMP-9) [11]: 32.7 | Concentration (pg/ml), MMP-9 [12]: 4612.9 pg/mL and 5239.4 pg/mL and 5555.3 pg/mL | MFI (Bead name: MMP-9) [12]: 31.0 and 33.0 and 34.0 | Concentration (pg/ml), MMP-9 [13]: 16511.2 pg/mL | MFI (Bead name: MMP-9) [13]: 66.5 | Concentration (pg/ml), MMP-9 [14]: 12836.1 pg/mL and 20186.4 pg/mL | MFI (Bead name: MMP-9) [14]: 56.0 and 77.0 | Concentration (pg/ml), MMP-9 [15]: 14148.8 pg/mL | MFI (Bead name: MMP-9) [15]: 59.8 | Concentration (pg/ml), MMP-9 [16]: 16823.6 pg/mL and 11474.0 pg/mL | MFI (Bead name: MMP-9) [16]: 67.5 and 52.0 | Concentration (pg/ml), MMP-9 [17]: 17040.0 pg/mL | MFI (Bead name: MMP-9) [17]: 68.0 | Concentration (pg/ml), MMP-9 [18]: 20901.3 pg/mL and 13178.7 pg/mL | MFI (Bead name: MMP-9) [18]: 79.0 and 57.0 | Concentration (pg/ml), MMP-9 [19]: 10636.2 pg/mL | MFI (Bead name: MMP-9) [19]: 49.5 | Concentration (pg/ml), MMP-9 [20]: 11813.2 pg/mL and 9459.2 pg/mL | MFI (Bead name: MMP-9) [20]: 53.0 and 46.0 | Concentration (pg/ml), MMP-9 [21]: 11140.0 pg/mL | MFI (Bead name: MMP-9) [21]: 51.0 | Concentration (pg/ml), MMP-9 [22]: 10126.8 pg/mL and 12153.3 pg/mL | MFI (Bead name: MMP-9) [22]: 48.0 and 54.0
